In a compilation of properties of binary mixtures (doi:10.1039/c7cp04078d):

Experiment: xn = mol fraction of the nth substance listed
Conditions: 303.15 K, 100 kPa

Row | Compound | viscosity (x2 = 0) [mPa·s] | viscosity (x2 = 0.1) [mPa·s] | viscosity (x2 = 0.33) [mPa·s] | viscosity (x2 = 0.5) [mPa·s] | viscosity (x2 = 0.67) [mPa·s] | viscosity (x2 = 0.8) [mPa·s] | viscosity (x2 = 0.9) [mPa·s] | viscosity (x2 = 0.2) [mPa·s]
1 | CC(=O)[O-].CCCC[N+](CCCC)(CCCC)CCCC + CCCCN | 680 | 390 | 78 | 28 | 16 | 11 | 9 | –
2 | CC(=O)[O-].CCCC[N+](CCCC)(CCCC)CCCC + CC(=O)O | 680 | 460 | 169 | 83 | 41 | 25 | 19 | 297
